Assay results as given in US7879822B2, “Stabilized sulforaphane” (Pharmagra Labs, Inc., priority 2007, dated 2011).

What was measured:
[1] = Stability analysis of sulforaphane-cyclodextrin formulations by HPLC (Example 1); type: physicochemical; settings: stored in a freezer
Procedure: Analysis Overview: The sulforaphane formulations were analyzed via HPLC (UV detection at 254 nm) using an internal standard (DEET) method. An assumption is made that the sulforaphane completely disassociates from the cyclodextrin under the chromatographic conditions. A sulforaphane standard (stored in a freezer) is used to determine the response factor for each analysis.
Storage Conditions: The samples were stored under three conditions: Capped and at room temperature, capped and stored in the freezer (−30° C.), and open and stored in a 40° C. oven. These samples were analyzed for sulforaphane load over time. The stabilization of the different samples and different storage conditions may be seen in FIGS. 3-5.
Sample Preparation Example: A 20 mg to 50 mg (carefully weighed) formulation sample is dissolved in 1 mL of internal standard solution (DEET in DMF). The amount of ISTD solution is also carefully weighed. The sample is further diluted with 1 mL of nitrogen sparged deionized water. The samples are sonicated for approximately ten minutes and filtered through ha 0.45 μm nylon filter. The samples are then analyzed by HPLC UV detection at 254 nm.
Analysis Results: The results are presented as percent of theoretical load versus time (The calculation for theoretical was described above.)

[2] = Extended stability study of stabilized sulforaphane compositions by HPLC (Example 2); type: physicochemical; settings: stored in a freezer
Procedure: The sulforaphane formulations were analyzed via HPLC (UV detection at 254 nm) using an internal standard (DEET) method. A sulforaphane standard (stored in a freezer) was used to determine the response factor for each analysis.
A ca. 300 mg (carefully weighed) formulation sample was dissolved in 8 mL of internal standard solution (DEET in DMF, ca 2 mg/mL). The amount of ISTD solution was also carefully weighed. The sample was further diluted with 8 mL of nitrogen sparged DI water. The samples were sonicated for ˜10 minutes and filtered through a 0.45 μm nylon filter. The samples were then analyzed by HPLC UV detection at 254 nm.
Chromatographic Conditions: • Column: Agilent Eclipse XDB-C18, 5 μm, 250×4.6 mm, […] @ 30° C. • Solvent A: 0.1% Formic acid in H2O • Solvent B: MeCN • Gradient: 5% to 100% Solvent B in Solvent A over 30 minutes • Flow: 1.5 mL/minute • Detector: UV 254 nm, ESI-MS (pos/neg) for confirmation • Retention Times: Sulforaphane: 9.2 minutes DEET: 15.5 minutes
Analysis Results: The results are presented as percent of the “time zero” load versus time.

stability of the standard (HPLC response factor over all analyses) [1]: stable
stability of the standard (HPLC response factor over all analyses) [2]: stable
SMILES: C[S+]([O-])CCCCN=C=S (racemic) [sulforaphane]
